From the supplement of paper PMC6470124

What was measured:
[1] = LC retention time (Atlantis T3, 5-95% MeOH gradient, 0.1% formic acid); higher = more retained / less polar
How it was run: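 Retention times were recorded for reference standards on a polar reversed-phase C18 column. The standards were of purity ≥ 95%, and the Atlantis T3 column (3 × 150 mm, 3 μm) was run at 0.3 mL/min with a gradient from 5 to 95% methanol over 17.5 min, both water and methanol containing 0.1% formic acid. Detection used high-resolution tandem mass spectrometry on a QExactive Plus, with positive and negative electrospray in separate runs, and peaks were integrated in TraceFinder (5 ppm tolerance, at least three points per peak) before being checked by hand.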

[2] = absolute recovery over vacuum-assisted evaporative concentration; higher = better recovery; conditions: enrichment method: VEC
How it was run: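 Samples of influent (6 mL), effluent (15 mL) and surface or nanopure water (60 mL) were spiked with standards before or after concentration, or left unspiked, at 200 ng/L (nanopure/surface) or 1000 ng/L (wastewater), adjusted by class and compound. Concentration was by evaporation at 55 °C and 20 mbar to about 0.3 mL, followed by adjustment to 0.4 mL and centrifugation. Internal standards were then added for LC-HRMS/MS analysis. Absolute recovery was (response ratio pre − unspiked)/(post − unspiked) × 100, using averages of ≥ 2 replicates.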

[3] = absolute recovery over mixed-bed multilayer solid-phase extraction; higher = better recovery; conditions: enrichment method: SPE
How it was run: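 Absolute recovery was calculated by comparing background-corrected response ratios of samples spiked before extraction with those spiked after it, averaged over at least two replicates. Wastewater (100–250 mL, adjusted to pH 6.5 and glass-fibre filtered) or 1000 mL of unfiltered nanopure water was passed through a three-layer mixed-bed cartridge and eluted with basic and then acidic ethyl acetate/methanol. Standards were added before extraction, after extraction, or not at all, at 200 ng/L in water or 1000 ng/L in wastewater, with exceptions for some classes. Internal standards were added afterwards, and samples were analysed by liquid chromatography with high-resolution tandem mass spectrometry in both ionisation modes.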

Row | Structure (SMILES) | LC retention time [1] [min] | absolute recovery ([2]; wastewater effluent) [%] | absolute recovery ([2]; wastewater influent) [%] | absolute recovery ([3]; nanopure water) [%] | absolute recovery ([3]; surface water) [%] | absolute recovery ([3]; wastewater effluent) [%] | absolute recovery ([3]; wastewater influent) [%]
1 | CC(=O)N(CC(O)CO)c1c(I)c(C(=O)NCC(O)CO)c(I)c(C(=O)NCC(O)CO)c1I (configuration not stated) [Iohexol] | 8.81 | 102 | 98.3 | 68.2 | 73.1 | 66.4 | 56.8
2 | CN(C(=O)CO)c1c(I)c(C(=O)NCC(O)CO)c(I)c(C(=O)NCC(O)CO)c1I (configuration not stated) [Iomeprol] | 8.92 | 109 | 108 | 73.5 | 67.8 | 66.5 | 52.4
3 | CC(O)C(=O)Nc1c(I)c(C(=O)NC(CO)CO)c(I)c(C(=O)NC(CO)CO)c1I (configuration not stated) [Iopamidol] | 7.78 | 107 | 103 | 59.6 | 64.5 | 70 | 53
4 | COCC(=O)Nc1c(I)c(C(=O)NCC(O)CO)c(I)c(C(=O)N(C)CC(O)CO)c1I (configuration not stated) [Iopromid] | 10.1 | 108 | 90.1 | 86.3 | 79.5 |  | 65.9
5 | O=C(NCC(O)CO)c1c(I)c(C(=O)NCC(O)CO)c(I)c(N(CCO)C(=O)CO)c1I (configuration not stated) [Ioversol] | 7.88 | 83.7 | 86.5 | 55.7 |  | 57.2 | 36
6 | CC(=O)Nc1c(I)c(C(=O)[O-])c(I)c(C(=O)NCCO)c1I [Ioxitalamic-acid] | 9.16 | 103 | 101 | 59.6 | 65.7 | 76 | 61.4
7 | N#Cc1cc(I)c([O-])c(I)c1 [Ioxynil] | 19.3 | 106 | 111 | 103 | 102 | 99.4 | 96.2
8 | Cc1ccc(C(C)NC(=O)C(NC(=O)OC(C)C)C(C)C)cc1 (configuration not stated) [Iprovalicarb] | 20.1 | 89.8 | 92.3 | 96.4 | 85.1 | 85.2 | 98.8
9 | CSc1nc(N)nc(NC(C)(C)C)n1 [Irgarol-descyclopropyl] | 16.3 | 106 | 115 | 107 | 100 | 101 | 79
10 | CSc1nc(NC2CC2)nc(NC(C)(C)C)n1 [Irgarol] | 19 | 98 | 95.5 | 101 | 98.8 | 97 | 91.2
11 | CC(C)c1ccc(NC(N)=O)cc1 [Isoproturon-didemethyl (=1-(4-Isoprophenyl)urea)] | 17.7 | 102 | 103 | 99.9 | 94.1 | 95.4 | 95.4
12 | CNC(=O)Nc1ccc(C(C)C)cc1 [Isoproturon-monodemethyl (=1-(4-Isoprophenyl)-3-methylurea)] | 18.3 | 105 | 101 | 96.3 | 93.3 | 94.1 | 98.9
13 | CC(C)c1ccc(NC(=O)N(C)C)cc1 [Isoproturon] | 18.5 | 102 | 103 | 98.5 | 97.4 | 97 | 92.5
14 | CCOC(=O)C1=NOC(c2ccccc2)(c2ccccc2)C1 [Isoxadifen-ethyl] | 20.6 | 26.4 |  | 82.7 | 93.3 | 103 | 62.5
15 | CS(=O)(=O)c1cc(C(F)(F)F)ccc1C(=O)c1cnoc1C1CC1 [Isoxaflutole] | 18.3 | 74.8 |  | 19.2 | 21.8 | 22.8 | 35.1
16 | C[NH2+]C1(c2ccccc2Cl)CCCCC1=O (configuration not stated) [Ketamin] | 11.7 | 101 | 105 | 83.7 | 82.3 | 82.9 | 90.4
17 | CC(=O)N1CCN(c2ccc(OCC3COC(Cn4cc[nH+]c4)(c4ccc(Cl)cc4Cl)O3)cc2)CC1 (configuration not stated) [Ketoconazol] | 16 | 71.5 |  | 80.2 | 62.2 | 66.4 | 85.8
18 | CON=C(C(=O)[O-])c1ccccc1COc1ccccc1C [Kresoxim-methyl-acid] | 20.1 | 97.4 | 134 | 85.5 | 71.8 | 81.5 | 89.8
19 | CON=C(C(=O)OC)c1ccccc1COc1ccccc1C [Kresoxim-methyl] | 20.7 | 98.9 | 89.9 | 103 | 110 | 103 | 93.5
20 | Nc1nnc(-c2cccc(Cl)c2Cl)c(N)n1 [Lamotrigin] | 12.8 | 104 | 97.7 | 96.2 | 96.6 | 91.1 | 96.7
21 | O=c1[nH]c2c(c(=O)n1C1CCCCC1)CCC2 [Lenacil] | 18.6 | 102 | 103 | 93.2 | 87.6 | 92 | 92.4
22 | c1ccc(C2CN3CCSC3=[NH+]2)cc1 (configuration not stated) [Levamisol] | 9.66 | 104 | 98.7 | 84.8 | 81.9 | 83.8 | 82
23 | CCC(C(N)=O)N1CCCC1=O (configuration not stated) [Levetiracetam] | 10.9 | 105 |  | 65.6 | 60.2 | 56.3 | 
24 | CC1COc2c(N3CCN(C)CC3)c(F)cc3c(=O)c(C(=O)[O-])cn1c23 (configuration not stated) [Levofloxacin] | 11.2 | 103 | 135 | 88.7 | 108 | 93.3 | 114
25 | CC[NH+](CC)CC(=O)Nc1c(C)cccc1C [Lidocain] | 11.2 | 101 | 99.4 | 97.1 | 96.5 | 93.5 | 95
26 | CC[N+]([O-])(CC)CC(=O)Nc1c(C)cccc1C [Lidocaine-N-Oxide] | 12.2 | 102 | 105 | 90.4 | 94.7 | 90.6 | 98.9
27 | CC(=O)NCC1CN(c2ccc(N3CCOCC3)c(F)c2)C(=O)O1 (configuration not stated) [Linezolid] | 14.9 | 103 | 100 | 92.3 | 90.5 | 92 | 99.5
